The nature of this data set: RP, Waters ACQUITY UPLC BEH C18, 50 × 2.1 mm, 1.7 µm, 55 °C, 0.4 mL/min, estimated dead time 0.28 min; A: 40% water + 60% acetonitrile + 0.1% acetic acid + 10 mM ammonium acetate; B: 10% acetonitrile + 90% isopropanol + 0.1% acetic acid + 10 mM ammonium acetate; gradient (min/%B) 0/40 2/43 2.1/50 12/54 12.1/70 18/99 19/99. The following applies: stereoisomer not certain.
For the molecule `CCCCC/C=C\C/C=C\CCCCCCCC(=O)O` [linoleic acid], the LC retention time was 2 min.

As to `CC(CCC(=O)O)C1CCC2C3C(O)CC4CC(O)CCC4(C)C3CC(O)C12C` (stereo not drawn) [cholic acid], the LC retention time was 1 min.

Regarding `C=CCCCCCCCCC(=O)O` [undecylenic acid], the LC retention time was 1 min.

In the case of `CCCCCCCCCCCCCCCC(=O)OCC(O)COP(=O)([O-])OCC[N+](C)(C)C` (stereo not drawn) [LPC(16:0/0:0)], the LC retention time is 1.35 min.

Take `CCCCCCCCC=CCCCCCCCC(=O)OC(COC(=O)CCCCCCCCCCCCCCC)COP(=O)(O)OC1C(O)C(O)C(O)C(O)C1O` (stereo not drawn) [PI(16:0/18:1)]: the LC retention time was 6 min.

In the case of `CCCCCC=CCC=CCC=CCC=CCCCC(=O)OC(COCCCCCCCCCCCCCCCC)COP(=O)([O-])OCC[N+](C)(C)C` (stereo not drawn) [PC(O-16:0/20:4)], the LC retention time is 8 min.

`CCCCCC=CCC=CCCCCCCCC(=O)OC(COC(=O)CCCCCCCCCCCCCCC)COP(=O)([O-])OCC[N+](C)(C)C` (stereo not drawn) [PC(16:0/18:2)]: the LC retention time is 7 min.

For `CCCCCC/C=C\CCCC(=O)O` [cis-5-dodecenoic acid], the LC retention time is 1 min.

`CC12CCC3C(CCC4CC(OS(=O)(=O)O)CCC43C)C1CCC2=O` (stereo not drawn): the LC retention time was 1 min.

Consider `CCCCCC=CCC=CCC=CCC=CCCCC(=O)O` [arachidonic acid], for which the LC retention time was 2 min.

On to `CCCCCCCCCCCC(=O)O` [lauric acid], for which the LC retention time is 1 min.

With `CCCCCCCCCCCCC(O)C(=O)O` (stereo not drawn) [2-hydroxymyristic acid], the LC retention time was 0.92 min.

Turning to `CCCCCCCC/C=C\CCCCCCCCCCCC(=O)O` [cis-13-docosenoic acid], the LC retention time is 4 min.
